Like-named read-outs stand apart in the source and are kept apart here.
Key:
[1] = tested on: phytanic acid omega-hydroxylase (cytochrome P450) of pooled human liver microsomes; assay: Phytanic acid omega-hydroxylation in pooled human liver microsomes (formation of omega-hydroxyphytanic acid, GC/MS); conditions: for Km / effect on the formation of omega-hydroxyphytanic acid: pooled human liver microsomes; for effect on the formation of omega-hydroxyphytanic acid: different concentrations of imidazole derivatives (FIG. 7A)
Procedure: (§1) Reactions were initiated by adding NADPH (final concentration 1 mM) and terminated by addition of 0.1 ml 1 M HCl. […] After addition of the internal standard (IS, 2 nmol 3-hydroxyheptadecanoic acid in 20 μl ethanol) the samples were extracted twice with 6 ml ethylacetate-diethylether (1:1 v/v). The organic layers were collected and the solvents evaporated. The residue was dissolved in 4 ml ethylacetate and further dried with anhydrous MgSO4 and again evaporated. […] TMS ester/ether formation was performed by incubating the samples with 40 μl BSTFA containing 1% TMCS and 10 μl pyridine at 80° C. for 1 hour. After the incubation the solution was directly used for GC-MS analysis.
(§2) FIG. 7. […] Pooled human liver microsomes were incubated with phytanic acid in the presence of different concentrations of imidazole derivatives. […] The data shown represent means of duplicate experiments.

[2] = tested on: phytanic acid omega-hydroxylase (cytochrome P450) of rat liver microsomes; assay: Phytanic acid omega-hydroxylation in rat liver microsomes (formation of omega-hydroxyphytanic acid, GC/MS); type: biochemical; conditions: for effect on the formation of omega-hydroxyphytanic acid: different concentrations of imidazole derivatives (FIG. 4A)
Procedure: (§3) To this end, Male Wistar rats fed a standard laboratory diet, were fasted overnight before sacrifice and removal of the liver. The livers were rapidly chilled and washed several times in buffer containing 250 mM sucrose, 0.5 mM EDTA, 2 mM MOPS/KOH (final pH 7.4). Subsequently, the livers were minced and homogenized with a Potter S homogenizer (B. Braun, Germany) with a teflon pestle at 500 rpm (5 strokes), followed by centrifugation of the homogenate for 10 min at 550×g. The obtained post-nuclear supernatant was subjected to centrifugation at 22,500×g for 10 min to remove mitochondria and lysosomes. Finally, the microsomal fraction was obtained by centrifugation of the supernatant for 3 h at 32,000×g. The microsomal pellet fraction was taken up in PBS containing 5 mM DTT and divided into small aliquots, which were stored at −80° C. The microsomes were sonicated 3 times for 10 s at 8 Watt before each experiment.
The standard reaction mixture consisted of 100 mM potassium phosphate buffer pH 7.4 and rat liver microsomes (1 mg/ml end concentration) plus phytanic acid dissolved in DMSO (200 μM end concentration, unless indicated otherwise). Reactions were initiated by addition of NADPH at a final concentration of 1 mM. The final reaction volume was 0.2 ml. Reactions were terminated by addition of 0.2 ml 1 M HCl. […] The internal standard (IS, 10 nmol 3-hydroxyheptadecanoic acid in 20 μl ethanol) was added to this aqueous mixture. The samples were extracted twice with 6 ml ethylacetate-diethylether (1:1 v/v). The organic layer was collected and the solvents evaporated under vacuum using a rotary evaporator at room temperature. The residue was dissolved in 4 ml ethylacetate and further dried with MgSO4. After spinning down the MgSO4, the solution was transferred to 4 ml reaction vials and the solvent evaporated under nitrogen. […] TMS ester/ether formation was performed with 40 μl N,O-bis-(trimethylsilyl)trifluoroacetamide (BSTFA) containing 1% trimethylchlorosilane (TMCS) and 10 μl pyridine. The vials were sealed with a Teflon-lined screwcap and incubated at 80° C. for 1 hour. After the incubation the solution could be directly used for GC-MS analysis.
The identity of the substrate, the internal standard, and the reaction product(s) was verified by taking mass spectra of the pertrimethylsilylated derivatives in the scanning electron impact mode.
Based on the experiments described above, I selected the following assay conditions: 0,75 mg/ml methyl-beta-cyclodextrin, 100 mM potassium phosphate (pH 7.6), 1 mM NADPH, and 200 μM phytanic acid. Under these conditions, formation of omega-hydroxyphytanic acid was linear with time up to 60 min, and with protein up to 1 mg/ml (data not shown).
FIG. 4. […] Rat liver microsomes were incubated with phytanic acid in the presence of different concentrations of imidazole derivatives. The inhibitory effect of the imidazole derivatives on the formation of omega-hydroxyphytanic acid (omega-HPA; A) and (omega-1)-hydroxyphytanic acid (B) is shown. The data shown represent means of duplicate experiments.

[3] = tested on: phytanic acid (omega-1)-hydroxylase (cytochrome P450); assay: in vitro; conditions: human, pH 7.7
Procedure: as §1, §2

[4] = tested on: phytanic acid omega-hydroxylase (cytochrome P450); assay: in vitro; conditions: human, pH 7.7
Procedure: as §1, §2

[5] = tested on: phytanic acid (omega-1)-hydroxylase (cytochrome P450) of rat liver microsomes; assay: Phytanic acid (omega-1)-hydroxylation in rat liver microsomes (formation of (omega-1)-hydroxyphytanic acid, GC/MS); type: biochemical; conditions: different concentrations up to 100 μM (FIG. 4B)
Procedure: as §3
The standard reaction mixture consisted of 100 mM potassium phosphate buffer pH 7.4 and rat liver microsomes (1 mg/ml end concentration) plus phytanic acid dissolved in DMSO (200 μM end concentration, unless indicated otherwise). Reactions were initiated by addition of NADPH at a final concentration of 1 mM. The final reaction volume was 0.2 ml. Reactions were terminated by addition of 0.2 ml 1 M HCl. […]

CC(C)CCCC(C)CCCC(C)CCCC(C)CC(=O)O (stereo not drawn) [phytanic acid, 3,7,11,15-tetramethylhexadecanoic acid] was tested, and the “ratio omega:(omega-1) hydroxylated products” value ([1]; pooled human microsomes, four separate experiments) was 15.4±0.7, the Km ([1]; read-out: apparent Km for phytanic acid, estimated as substrate concentration with half maximal omega-hydroxylation activity (FIG. 6D)) was 80 µM and the Km ([2]; fixed molar ratio phytanic acid/methyl-beta-cyclodextrin (FIG. 3D), read-out: apparent Km for phytanic acid) was 114 ± 9 µM. For the same compound, the “ratio omega:(omega-1) hydroxylated products” value ([2]; four separate experiments) was 2.2±0.2.

In the case of c1ccc(-c2ccc(C(c3ccccc3)n3ccnc3)cc2)cc1 (stereo not drawn) [Bifonazole], the IC50 [3] is reported as less than 2 µM, the “effect on the formation of omega-hydroxyphytanic acid” value [1] is reported as “inhibit product formation” and the IC50 [4] is reported as 13 µM. The “effect on the formation of omega-hydroxyphytanic acid” value [2] was “most potent inhibitor”.

With Clc1ccc(COC(Cn2ccnc2)c2ccc(Cl)cc2Cl)c(Cl)c1 (stereo not drawn) [Miconazole] the IC50 [3] was less than 2 µM, the “effect on the formation of (omega-1)-hydroxyphytanic acid” value [5] was “most potent inhibitor” and the “effect on the formation of omega-hydroxyphytanic acid” value [1] was “inhibit product formation”. The IC50 [4] was 30 µM and the “effect on the formation of omega-hydroxyphytanic acid” value [2] was “inhibited”.

In the case of Clc1ccccc1C(c1ccccc1)(c1ccccc1)n1ccnc1 [Clotrimazole], the IC50 [3] is reported as 3 µM, the “effect on the formation of (omega-1)-hydroxyphytanic acid” value [5] is reported as “stimulatory effect at low concentrations with little inhibition at the highest concentrations used” and the “effect on the formation of omega-hydroxyphytanic acid” value [1] is reported as “inhibit product formation”. For the same compound, the IC50 [4] was 43 µM and the “effect on the formation of omega-hydroxyphytanic acid” value [2] was “inhibited”.

Work on NC(=O)C1=CN([C@@H]2O[C@H](COP(=O)(O)OP(=O)(O)OC[C@H]3O[C@@H](n4cnc5c(N)ncnc54)[C@H](OP(=O)(O)O)[C@@H]3O)[C@@H](O)[C@H]2O)C=CC1 [NADPH] yielded a Km ([1]; read-out: Km for NADPH, NADPH-regenerating system, Lineweaver Burke plot (FIG. 6C), means of duplicate experiments) of 2 µM and a Km ([2]; NADPH regenerating system, Lineweaver-Burke plot (FIG. 3C), read-out: apparent Km for NADPH) of 35 µM.

CC(=O)N1CCN(c2ccc(OCC3COC(Cn4ccnc4)(c4ccc(Cl)cc4Cl)O3)cc2)CC1 (stereo not drawn) [Ketoconazole] was tested, and the “effect on the formation of omega-hydroxyphytanic acid” value [2] was “inhibited”.

Source: patent US20060241073A1, “Means and methods for counteracting fatty acid accumulation” (priority 2005, published 2006)
